Experimental data taken from US8053583B2, “Anti-cancer compound and manufacturing method thereof” (National Defense Medical Center, priority 2008, dated 2011).
Entries after “also recorded” stand apart in the source; their conditions may differ.

Columns and labels:
[1] = tested on: GBM 8901 (human brain glioblastoma) cells; assay: MTT colorimetric assay, GBM 8901 cells; conditions: for viability at 10 µM: Homo sapiens, read-out: Cell viability (%) GBM 8901, conc. 10 μM; for inhibition of growth of tumor cells GBM 8901 (in words): primary screening, 10 μM, criterion viability less than 80%
Excerpt: (§1) MTT (tetrazole) assay used to determine tumor viability is based on measurement of the activity of dehydrogenase to determine cell growth conditions. In live cells, dehydrogenase in active mitochondria converts yellow MTT [3-(4,5-dimethylthiazol-2-yl)-2,5-diphenyltetra zolium bromide] into purple formazan on the reductive cleavage of its tetrazolium ring. The formazan crystal is examined under the microscope. While the mitochondria in dead cells are without active dehydrogenase, no crystal is generated and the color remains yellow. After adding MTT into cell cultures and reacting for 2 hours, the amount of generated formazan precipitate is proportional to total amount of dehydrogenase. Removing the culture medium, add DMSO to dissolve the purple formazan precipitate. Then measure the absorbance of the precipitate by is measured by the spectrophotometer at 560/670 nm so as to learn inhibition effect of drugs acted on normal cells and tumor cells.
(§2) GBM 8401, GBM 8901 (human brain glioblastoma) and SVG p12 (human brain astroglia)cells line are selected to be used in 96 well petri dishes. Each well is filled into the same amount of cells-about 5000 cells per well. After being cultured for 24 hours and cells anchor/attach, the 96 wells are divided into two groups-an experimental group and a control group containing no samples. The samples are diluted into 10 μg/mL by culture medium. Take 200 μL of each sample and add into the experimental group and the control group is added with 200 μL culture medium without samples. After 46 hours of culture, each well is added with 10 μL MTT solution, incubate cells at 37° C., 5% CO2 for 2 hours.
(§3) Then each well is added with 100 μL, dissolving formazan. Shaking for 10 minutes and measure the absorbance at 560/670 nm of the sample by the spectrometer. The data of the experimental group is divided by the data of the control group to get the estimated cell viability.
(§4) Three cell lines-GBM 8401, GBM 8901, SVG p12 (normal) are used in cytotoxicity tests of 1,8-bis-substituted amidoanthraquinone. After reacting with the drug for 46 hours, the cells are reacted with certain amount of MTT solution. After 2 hours, DMSO is used to dissolve formazan and O.D. (optical density) at 560/670 nm is measured. Then calculate the radios of the experimental groups (with drugs) to the control groups (without drugs).

[2] = tested on: GBM 8401 (human brain glioblastoma) cells; assay: MTT colorimetric assay, GBM 8401 cells; conditions: for viability at 10 µM: Homo sapiens, read-out: Cell viability (%) GBM 8401, conc. 10 μM; for inhibition of proliferation of tumor cells GBM 8401 (in words): primary screening, 10 μM, criterion viability less than 80%
Excerpt: as §1, §2, §3, §4

[3] = MTT colorimetric assay, normal SVG p12 cells; conditions: human, SVG p12 cells (normal human brain astroglia), Cell viability (%) SVG p12, conc. 10 μM, 46 hours with drug, then 2 hours MTT, ratio to control group without drug
Excerpt: as §1, §2, §3, §4

[4] = 46 hours with drug, then 2 hours MTT, ratio to control group without drug
[5] = conc. 10 μM, 46 hours with drug, then 2 hours MTT, ratio to control group without drug

Row | Molecule | viability at 10 µM [1, 4] | inhibition of growth of tumor cells GBM 8901 (in words) [1] | viability at 10 µM [2, 4] | viability at 46 h, 10 μM [3] | melting point | inhibition of proliferation of tumor cells GBM 8401 (in words) [2] | Cell viability (%) GBM 8901 [1, 5] | Cell viability (%) GBM 8401 [2, 5]
1 | CC(C)CNCC(=O)Nc1cccc2c1C(=O)c1c(NC(=O)CNCC(C)C)cccc1C2=O [Compound 3k, 1,8-Bis[2-(isobutylamino)acetamido]anthraquinone] | 57 ± 16% | inhibit growth | 95 ± 12% | – | – | – | – | –
2 | COC(=O)[C@H](CC(C)C)NCC(=O)Nc1cccc2c1C(=O)c1c(NC(=O)CN[C@H](CC(C)C)C(=O)OC)cccc1C2=O [Compound 3g, 1,8-Bis[2-(leucinemethyl ester)acetamido]anthraquinone] | 89 ± 4% | – | 111 ± 8% | 153 ± 11% | 238 to 239 °C | – | – | –
3 | O=C(CNCc1cccc(C(F)(F)F)c1)Nc1cccc2c1C(=O)c1c(NC(=O)CNCc3cccc(C(F)(F)F)c3)cccc1C2=O [Compound 3q, 1,8-Bis [2-(3-(trifluoromethyl)benzylamino)acetamido]anthraquinone] | 83 ± 10% | – | 120 ± 26% | 135 ± 20% | 190 to 191 °C | – | – | –
4 | CC(C)NCC(=O)Nc1cccc2c1C(=O)c1c(NC(=O)CNC(C)C)cccc1C2=O [Compound 3o, 1,8-Bis[2-(isopropylamino)acetamido]anthraquinone] | 5 ± 1% | inhibit growth | 4 ± 1% | 4 ± 1% | – | inhibit proliferation; also recorded: quite good inhibition effects | – | –
5 | CC(C)(C)OC(=O)NCCNCCC(=O)Nc1cccc2c1C(=O)c1c(NC(=O)CCNCCNC(=O)OC(C)(C)C)cccc1C2=O [Compound 4d, 1,8-Bis[2-(N-Boc-ethanediamino)propionamido]anthraquinone] | 4% | – | 10 ± 5% | 8 ± 1% | 101 to 102 °C | – | – | –
6 | COC(=O)CN(C)CC(=O)Nc1cccc2c1C(=O)c1c(NC(=O)CN(C)CC(=O)OC)cccc1C2=O [Compound 3f, 1,8-Bis[2-(sacrocinemethyl ester)acetamido]anthraquinone] | 107 ± 5% | – | 130 ± 20% | 172 ± 2% | 129 to 130 °C | – | – | –
7 | COC(=O)CNCC(=O)Nc1cccc2c1C(=O)c1c(NC(=O)CNCC(=O)OC)cccc1C2=O [Compound 3a, 1,8-Bis[2-(glycinmethyl ester)acetamido]anthraquinone] | 104 ± 2% | – | 95 ± 10% | 93 ± 6% | 173 to 174 °C | – | – | –
8 | CN(C)CCNCCC(=O)Nc1cccc2c1C(=O)c1c(NC(=O)CCNCCN(C)C)cccc1C2=O [Compound 4e, 1,8-Bis[2-(dimethylethanediamino)propionamido]anthraquinone] | 10 ± 5% | – | 14 ± 2% | 13 ± 3% | 100 to 102 °C | – | – | –
9 | COC(=O)[C@H](COC(C)(C)C)NCC(=O)Nc1cccc2c1C(=O)c1c(NC(=O)CN[C@H](COC(C)(C)C)C(=O)OC)cccc1C2=O [Compound 3t, 1,8-Bis[2-(tert-butyl-serinemethyl ester)acetamido]anthraquinone] | 69 ± 4% | inhibit growth | 98 ± 19% | > 80% | – | – | – | –
10 | CC(C)NCCC(=O)Nc1cccc2c1C(=O)c1c(NC(=O)CCNC(C)C)cccc1C2=O [Compound 4i] | 8 ± 2% | – | 2 ± 1% | 5 ± 1% | 105 to 106 °C | – | – | –
11 | (S)-1,8-Bis[2-(phenylglycin methyl ester)acetamido]anthraquinone [Compound 3j] | – | inhibit growth | – | – | – | inhibit proliferation; also recorded: quite good inhibition effects | – | –
12 | COC(=O)[C@H]1CCCN1CC(=O)Nc1cccc2c1C(=O)c1c(NC(=O)CN3CCC[C@H]3C(=O)OC)cccc1C2=O [Compound 3c, 1,8-Bis[2-(prolinemethyl ester)acetamido]anthraquinone] | 96 ± 3% | – | 83 ± 15% | 121 ± 5% | 170 to 171 °C | – | – | –
13 | COC(=O)[C@H](C)NCC(=O)Nc1cccc2c1C(=O)c1c(NC(=O)CN[C@H](C)C(=O)OC)cccc1C2=O [Compound 3i, (D)-1,8-Bis[2-(alalinemethyl ester)acetamido]anthraquinone] | – | – | – | – | – | inhibit proliferation; also recorded: quite good inhibition effects | 99 ± 11% | 64 ± 13%
14 | CCCN(C)CC(=O)Nc1cccc2c1C(=O)c1c(NC(=O)CN(C)CCC)cccc1C2=O [Compound 3s] | 107 ± 9% | – | 103 ± 9% | 132 ± 3% | 159 to 160 °C | – | – | –
15 | CCNCC(=O)Nc1cccc2c1C(=O)c1c(NC(=O)CNCC)cccc1C2=O [Compound 3p, 1,8-Bis[2-(ethanamino)acetamido]anthraquinone] | 4 ± 1% | inhibit growth | 2 ± 1% | 3 ± 1% | – | inhibit proliferation; also recorded: quite good inhibition effects | – | –
16 | CNCCC(=O)Nc1cccc2c1C(=O)c1c(NC(=O)CCNC)cccc1C2=O [Compound 4h] | 10 ± 1% | – | 9 ± 2% | 4% | 233 to 234 °C | – | – | –
17 | CN(C)CC(=O)Nc1cccc2c1C(=O)c1c(NC(=O)CN(C)C)cccc1C2=O [Compound 3m, 1,8-Bis[2-(dimethylamino)acetamido]anthraquinone] | 84 ± 9% | – | 60 ± 5% | > 80% | – | inhibit proliferation; also recorded: quite good inhibition effects | – | –
18 | CCN(CC)CC(=O)Nc1cccc2c1C(=O)c1c(NC(=O)CN(CC)CC)cccc1C2=O [Compound 3l, 1,8-Bis[2-(diethylamino)acetamido]anthraquinone] | 94 ± 26% | – | 91 ± 17% | 123 ± 13% | 228 to 229 °C | – | – | –
19 | O=C(CCNCc1cc(F)cc(F)c1)Nc1cccc2c1C(=O)c1c(NC(=O)CCNCc3cc(F)cc(F)c3)cccc1C2=O [Compound 4c, 1,8-Bis[3-(3,5-difluorobenzylamino)propionamido]anthraquinone] | 11 ± 9% | – | 14 ± 1% | > 80% | 190 to 191 °C | – | – | –
20 | COC(=O)[C@@H](NCC(=O)Nc1cccc2c1C(=O)c1c(NC(=O)CN[C@@H](C(=O)OC)C(C)C)cccc1C2=O)C(C)C [Compound 3d, (L)-1,8-Bis[2-(valinemethyl ester)acetamido]anthraquinone] | 97 ± 22% | – | 99 ± 40% | 87 ± 7% | 150 to 151 °C | – | – | –
21 | CCN(C)CC(=O)Nc1cccc2c1C(=O)c1c(NC(=O)CN(C)CC)cccc1C2=O [Compound 3r, 1,8-Bis[2-(ethylmethylamino)acetamido]anthraquinone] | 98 ± 12% | – | 90 ± 2% | 125 ± 7% | 186 to 187 °C | – | – | –
22 | CCCN(CCC)CC(=O)Nc1cccc2c1C(=O)c1c(NC(=O)CN(CCC)CCC)cccc1C2=O [Compound 3n, 1,8-Bis[2-(dipropylamino)acetamido]anthraquinone] | 73 ± 5% | inhibit growth | 106 ± 24% | 73 ± 30% | – | – | – | –
23 | CN(C)CCCNCCC(=O)Nc1cccc2c1C(=O)c1c(NC(=O)CCNCCCN(C)C)cccc1C2=O [Compound 4j, 1,8-Bis[2-(dimethylpropanediamino)propionamido]anthraquinone] | 22 ± 9% | – | 9 ± 2% | 33 ± 16% | 107 to 108 °C | – | – | –
24 | CC(C)CNCCC(=O)Nc1cccc2c1C(=O)c1c(NC(=O)CCNCC(C)C)cccc1C2=O [Compound 4b, 1,8-Bis[3-(isobutylamino)propionamido]anthraquinone] | 7 ± 3% | – | 4 ± 1% | 4% | 224 to 225 °C | – | – | –
25 | CCN(CC)CCC(=O)Nc1cccc2c1C(=O)c1c(NC(=O)CCN(CC)CC)cccc1C2=O [Compound 4a, 1,8-Bis[3-(diethylamino)propionamido]anthraquinone] | 3 ± 2% | – | 4% | 3% | 160 to 161 °C | – | – | –
26 | CCCN(CCC)CCC(=O)Nc1cccc2c1C(=O)c1c(NC(=O)CCN(CCC)CCC)cccc1C2=O [Compound 4g] | 8 ± 2% | – | 5 ± 1% | 4% | 129 to 130 °C | – | – | –
27 | CN(C)CCC(=O)Nc1cccc2c1C(=O)c1c(NC(=O)CCN(C)C)cccc1C2=O [Compound 4f] | 7 ± 3% | – | 3% | 4 ± 3% | 116 to 117 °C | – | – | –
28 | CCN(C)CCC(=O)Nc1cccc2c1C(=O)c1c(NC(=O)CCN(C)CC)cccc1C2=O [Compound 4k] | 7 ± 3% | – | 1 ± 3% | 2% | 129 to 130 °C | – | – | –
